Measurements from patent publication US20220339150A1, “ENDOCANNABINOID SYSTEM-TARGETING PRODRUGS AND THERAPEUTIC USES THEREOF” (priority 2021, published 2022).
Entries after “also recorded” stand apart in the source; their conditions may differ. Read-outs that look alike come from different tables or passages of the source.

How the values were obtained:
[1] = Stability in 80% human plasma (serum); type: in vitro ADME; conditions: 80% human serum (pH 7.4) at 37° C.
Procedure: The rates of the degradation of the prodrugs were determined in 80% human serum (pH 7.4) at 37° C. as an indication of the susceptibility of prodrugs to undergo bioconversion after reaching the circulation. The reactions were initiated by adding the first 10 μL of the prodrug stock solution (10 mg/mL in DMSO) to 200 μL preheated sodium phosphate buffer solution (50 mM, pH 7.4, ionic strength 0.5), and then adding 800 μL preheated human serum. The solutions were stirred at a constant temperature of 37° C. At appropriate intervals, 50 μL of samples were mixed with 150 μL of ice-cold MeOH. After immediate mixing and centrifugation (5 min at 14.000 rpm), the resulting clear supernatant was analyzed for the remaining prodrug by HPLC.

[2] = Metabolic stability in human liver microsomes; type: in vitro ADME; conditions: for half-life at 15 µg/mL / half-life: both sexes, human, microsomes
Procedure: The prodrugs were incubated with the human liver microsomes at 37° C. as an indication of the susceptibility of prodrugs to undergo bioconversion in the liver. The reactions were initiated by adding 1.5 μL of the prodrug stock solution (10 mg/mL in DMSO) to a preheated solution consisting of 748.5 μL potassium phosphate buffer solution (20 mM, pH 7.4, ionic strength 0.5), 200 μL NADPH, and 50 μLhuman liver microsomes (mixed gender, 0.5 ml at 20 mg/mL). The solutions were stirred at a constant temperature of 37° C. At appropriate intervals, 50 μLof samples were mixed with 100 μL of ice-cold MeOH. After immediate mixing and centrifugation (5 min at 14.000 rpm), the resulting clear supernatant was analyzed for the remaining prodrug by HPLC.

[3] = Stability in aqueous solutions (sodium phosphate buffer, 37° C.); type: physicochemical; conditions: for half-life: buffer, read-out: Half-life in aqueous solution (converted)
Procedure: […] The solutions of prodrugs were prepared by adding 10 μL of stock solution (10 mg/mL in DMSO) to the preheated buffer. The solutions were stirred at a constant temperature of 37° C. At appropriate intervals, 75 μL of samples were mixed with 75 μL of MeOH and analyzed for remaining prodrug by HPLC.
The pseudo-first-order rate constants (kobs) and half-lives (t1/2) for the degradation of the prodrugs were determined from the linear slopes of the plots by taking the logarithm of the remaining prodrug over time. Equations: kobs=slope/−2.303 and t1/2=ln2/kobs.

[4] = test system: reconstructed human epidermis cells; assay: In vitro skin permeability (SkinEthic Episkin reconstructed human epidermis); type: in vitro ADME; conditions: for Skin permeation, applied compound (parent or intact prodrug): receiver 15% HP-beta-CD pH 7.4
Procedure: (§1) The in vitro permeability studies were carried out in commercial reconstructed human epidermis cells (SkinEthic™ Episkin Reconstructed human epidermis). This model is composed of TR146 cells (derived from a squamous cell carcinoma of the buccal mucosa) cultivated on an inert polycarbonate filter at the air-liquid interface in a chemically defined medium. This model forms an epithelial tissue devoid of stratum corneum, resembling histologically to the mucosa of the oral cavity.
Upon receiving the cells, each insert (0.5 cm^2 or 0.33 cm^2) was placed in a plate containing 800 μL fresh medium at room temperature. The culture dishes were placed in the incubator at 37° C., 5% CO2, and saturated humidity overnight. Next day, the inserts were placed in a plate containing 800 μL 15% HP-β-cyclodextrin in H2O. CBD and CBG, and prodrugs CBDp27 and CBGp1 were dissolved in two different vehicles, 1:1:1 prop gly:water:EtOH/6% Brij 98, and 100% mineral oil. The receiver solution was 15% HP-beta-CD in phosphate buffer (pH 7.4). 400 μL the prodrugs were applied as suspensions (ca. 2 mg/ml). The plates were stirred gently at 37° C. At appropriate intervals, the receptor compartment was sampled (100 μL) and replenished with fresh […] solution each time. The samples were mixed with 100 μL of MeOH, and analyzed for drug (both the parent drug and prodrug) by HPLC-MS.
The flux-values for the rate of delivery of drugs were determined from Fick's law of diffusion.

[5] = test system: reconstructed human oral buccal epithelium cells (SkinEthic HOE, TR146 cells); assay: In vitro buccal permeability (SkinEthic human oral epithelium); type: in vitro ADME; conditions: for Buccal permeation compared with parent cannabinoid (in words): 5% ethanol suspension; for Species making up the buccal flux / formation of parent cannabinoid / Flux (buccal) / Flux compared with parent cannabinoid: Table 4; for Flux (buccal): suspension ca. 2 mg/ml in 5% EtOH/phosphate buffer pH 6.8, 37° C., receiver 15% HP-β-cyclodextrin; for Flux compared with parent cannabinoid: buccal flux relative to parent
Procedure: as §1, with “oral buccal epithelium” for “epidermis”, “(SkinEthic™” for “(SkinEthic™ Episkin Reconstructed”, “oral epithelium). The SkinEthic™ HOE” for “epidermis). This”
Upon receiving the cells, each insert (0.5 cm^2 or 0.33 cm^2) was placed in a plate containing 800 μL fresh medium at room temperature. The culture dishes were placed in the incubator at 37° C., 5% CO2, and saturated humidity overnight. Next day, the inserts were placed in a plate containing 800 μL 15% HP-β-cyclodextrin in H2O. The prodrugs were dissolved in 100% EtOH (5% (V/V) final conc.), and then sodium phosphate buffer solution (50 mM, pH 6.8, isotonic, 37° C.) was added (95% (V/V) final conc.). 400 μL of the prodrugs were applied as suspensions (ca. 2 mg/ml). The plates were stirred gently at 37° C. At appropriate intervals, the receptor compartment was sampled (100 μL) and replenished with fresh […] solution each time. The samples were mixed with 100 μL of MeOH, and analyzed for drug (both the parent cannabinoid and the prodrug) by HPLC-MS.
The buccal flux-values for the rate of delivery of drugs were determined from Fick's law of diffusion.

[6] = vehicle solvent mix (1:1:1 prop gly:water:EtOH/6% Brij 98)
[7] = pH 7.4, Table 5, 37° C., NADPH, read-out: Half-life in human liver microsomes (single determinations) (converted)
[8] = pH 7.4, Table 5, average of determinations, read-out: Half-life in human liver microsomes (avg.) (converted)
[9] = Table 5, aqueous buffer pH 6.8, 37° C., single determinations
[10] = pH 6.8, Table 5, aqueous buffer pH 6.8, 37° C., single determinations

| Compound | Skin permeation of prodrug relative to parent cannabinoid ([4]; mineral oil) [fold] | Skin permeation of prodrug relative to parent cannabinoid ([4]; solvent mix) [fold] | Skin permeation, applied compound (parent or intact prodrug) ([4]; vehicle mineral oil) [nmol/cm^2/h] | Skin permeation, applied compound (parent or intact prodrug) [4, 6] [nmol/cm^2/h] | Buccal permeation compared with parent cannabinoid (in words) [5] | Half-life in serum ([1]; Table 5) | Half-life in human liver microsomes (single determinations) ([2]; Table 5, 37° C., NADPH) [min] | half-life [2, 7] [min] | half-life [2, 8] [min] | Half-life in aqueous solution [3, 9] [min] | half-life [3, 10] [min] | Species making up the buccal flux / formation of parent cannabinoid ([5]; remark in flux cell) | Flux (buccal) [5] | half-life at 15 µg/mL [2, 8] [min] | Flux compared with parent cannabinoid [5] | other results |
| --- | --- | --- | --- | --- | --- | --- | --- | --- | --- | --- | --- | --- | --- | --- | --- | --- |
| C=C(C)[C@@H]1CCC(C)=C[C@H]1c1c(O)cc(CCCCC)cc1OC(=O)NCCN(C)C [CBDp27, (1′R,2′R)-6-hydroxy-5′-methyl-4-pentyl-2′-(prop-1-en-2-yl)-1′,2′,3′,4′-tetrahydro-[1,1′-biphenyl]-2-yl (2-(dimethylamino)ethyl)carbamate] | ~140 | ~40 | 3.28 ± 0.15 | 47.42 ± 5.23 | better than that of CBD; also recorded: superior when compared to CBD and other prodrugs |  |  |  |  |  |  |  |  |  |  | Half-life in serum ([1]; Table 3): stable; Half-life in human liver microsomes (single determinations) ([2]; Table 3, 37° C., NADPH): 3.13; 3.13 h; half-life at 15 µg/mL ([2]; pH 7.4, Table 3, 37° C., NADPH, read-out: Half-life in human liver microsomes (single determinations) (converted)): 188 min; half-life at 15 µg/mL ([2]; pH 7.4, Table 3, average of determinations, read-out: Half-life in human liver microsomes (avg.) (converted)): 188 min; Half-life in aqueous solution ([3]; Table 3, aqueous buffer pH 6.8, 37° C.): 10.2 min; Half-life in aqueous solution ([3]; Table 3, pH 3): (pH 3 = stable,; Half-life in aqueous solution ([3]; Table 3, pH 4): pH 4 = stable,; Half-life in aqueous solution ([3]; Table 3, pH 5): pH 5 = stable,; half-life ([3]; pH 6.8, Table 3, aqueous buffer pH 6.8, 37° C.): 8.4 min; half-life ([3]; pH 7.4, Table 3, pH 7.4): 52.2 min; half-life ([3]; pH 8, Table 3, pH 8): 65.4 min; half-life ([3]; pH 9, Table 3, pH 9): 98.4 min; Species making up the buccal flux (parent vs intact prodrug) ([5]; Table 2, remark in flux cell): CBD + prodrug |
| CCCCCc1cc(O)c(C/C=C(\C)CCC=C(C)C)c(OC(=O)C2CCNC2)c1 (centres unmarked) [CBGp1, (E)-2-(3,7-dimethylocta-2,6-dien-1-yl)-3-hydroxy-5-pentylphenyl pyrrolidine-3-carboxylate] | ~13 | > 300 | 0.54 ± 0.19 | 148.0 ± 40.9 |  | 44.4 min | 40.2 | 38.4 | 39.6 | 32.4 | 30 | (CBG + prodrug) | 111.79 ± 2.59 nmol/cm^2/h |  |  | half-life ([1]; human, serum, pH 7.4, Table 5): 42 min |
| CCCCCc1cc(OC(=O)N2CCN(C)CC2)c(C/C=C(\C)CCC=C(C)C)c(OC(=O)N2CCN(C)CC2)c1 [CBGp3, (E)-2-(3,7-dimethylocta-2,6-dien-1-yl)-5-pentyl-1,3-phenylene bis(4-methylpiperazine-1-carboxylate)] |  |  |  |  |  | No degradation |  |  |  | 22.8 | 16.8 | NO significant formation of CBGp2 or | 30.60 ± 2.02 (prodrug) nmol/cm^2/h | 114 | 2.6-times better | Flux compared with parent cannabinoid ([5]; listed as bis-methylpiperazine carbamate prodrug of CBG): 2.6 times |
| CCCCCc1cc(O)c(C/C=C(\C)CCC=C(C)C)c(OC(=O)N2CCNCC2)c1 [CBGp5, (E)-2-(3,7-dimethylocta-2,6-dien-1-yl)-3-hydroxy-5-pentylphenyl piperazine-1-carboxylate] |  |  |  |  |  | No degradation | 107 |  |  | 15.6 | 22.8 | NO significant formation of CBG | 10.31 ± 0.54 (prodrug) nmol/cm^2/h | 92.4 | No improvement | half-life at 15 µg/mL [2, 7]: 77.4 min |
| CCCCCc1cc(OC(=O)N2CCN(C)CC2)c2c(c1)OC(C)(C)[C@@H]1CCC(C)=C[C@@H]21 [THCp1, (6aR,10aR)-6,6,9-trimethyl-3-pentyl-6a,7,8,10a-tetrahydro-6H-benzo[c]chromen-1-yl 4-methylpiperazine-1-carboxylate] |  |  |  |  |  | No degradation | 301 | 158 | 230 | 24.6 | 39.6 | NO significant formation of THC | 19.22 ± 0.29 (prodrug) nmol/cm^2/h |  | No improvement |  |
| CCCCCc1cc(OC(=O)N2CCNCC2)c2c(c1)OC(C)(C)[C@@H]1CCC(C)=C[C@@H]21 [THCp3, (6aR,10aR)-6,6,9-trimethyl-3-pentyl-6a,7,8,10a-tetrahydro-6H-benzo[c]chromen-1-yl piperazine-1-carboxylate] |  |  |  |  | slightly better than THC | No degradation |  |  | 219 | 64.2 | 45.6 | NO significant formation of THC | 31.30 ± 1.31 (prodrug) nmol/cm^2/h |  | 1.6-times better |  |
